From the supplement of paper PMC10307832

Key:
Assay in all cases: relative viability (nuclei count vs DMSO), 5 days (fraction); higher = more cells survive
NCI-H1666 = tested on: NCI-H1666
Procedure, shortened: (§1)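 Nuclei were stained with Hoechst during a one-step fixation (final 0.05% Triton X-100, 1% formaldehyde, 1 ug/ml Hoechst) carried out 5 days after dosing, then counted on 4× images. The cells, lung cancer lines in 1536-well plates, had been dosed by pin tool the day after seeding with one drug alone or a fixed anchor-drug dose plus five library-drug doses (not always all listed) in √10 steps. Relative viability is the nuclei count in treated wells divided by that in vehicle wells, and each value is the median of duplicate plates.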

LU99A = tested on: LU99A
Procedure, shortened: as §1

NCI-H2085 = tested on: NCI-H2085
Procedure, shortened: as §1

NCI-H2009 = tested on: NCI-H2009
Procedure, shortened: as §1

A-427 = tested on: A-427
Procedure, shortened: as §1

NCI-H1944 = tested on: NCI-H1944
Procedure, shortened: as §1

HCC-78 = tested on: HCC-78
Procedure, shortened: as §1

UMC-11 = tested on: UMC-11
Procedure, shortened: as §1

LXF-289 = tested on: LXF-289
Procedure, shortened: as §1

SW 900 = tested on: SW 900
Procedure, shortened: as §1

NCI-H1915 = tested on: NCI-H1915
Procedure, shortened: as §1

LC-2-ad = tested on: LC-2-ad
Procedure, shortened: as §1

NCI-H460 = tested on: NCI-H460
Procedure, shortened: as §1

NCI-H1793 = tested on: NCI-H1793
Procedure, shortened: as §1

EPLC-272H = tested on: EPLC-272H
Procedure, shortened: as §1

HOP-62 = tested on: HOP-62
Procedure, shortened: as §1

NCI-H358 = tested on: NCI-H358
Procedure, shortened: as §1

COR-L 105 = tested on: COR-L 105
Procedure, shortened: as §1

HCC-366 = tested on: HCC-366
Procedure, shortened: as §1

SK-LU-1 = tested on: SK-LU-1
Procedure, shortened: as §1

NCI-H2170 = tested on: NCI-H2170
Procedure, shortened: as §1

Q: What does the source list for O=c1cc(-c2cccc3c2Sc2ccccc2S3)oc(N2CCOCC2)c1 + COc1cc2c(Oc3ccc(NC(=O)C4(C(=O)Nc5ccc(F)cc5)CC4)cc3F)ccnc2cc1OCCCN1CCOCC1 [Foretinib] (partner 0.25 µM)?
A: relative viability (NCI-H1666; first compound 0.08 µM): 1; relative viability (NCI-H1666; first compound 0.253 µM): 1.07; relative viability (NCI-H1666; first compound 0.8 µM): 1.13; relative viability (NCI-H1666; first compound 2.53 µM): 0.971; relative viability (NCI-H1666; first compound 8 µM): 0.908; relative viability (LU99A; first compound 0.08 µM): 0.825; relative viability (LU99A; first compound 0.253 µM): 0.841; relative viability (LU99A; first compound 0.8 µM): 1.04; relative viability (LU99A; first compound 2.53 µM): 0.829; relative viability (LU99A; first compound 8 µM): 1.13; relative viability (NCI-H2085; first compound 0.08 µM): 0.907; relative viability (NCI-H2085; first compound 0.253 µM): 1.21; relative viability (NCI-H2085; first compound 0.8 µM): 0.975; relative viability (NCI-H2085; first compound 2.53 µM): 0.771; relative viability (NCI-H2085; first compound 8 µM): 0.845; relative viability (NCI-H2009; first compound 0.08 µM): 1.23; relative viability (NCI-H2009; first compound 0.253 µM): 1.21; relative viability (NCI-H2009; first compound 0.8 µM): 1.15; relative viability (NCI-H2009; first compound 2.53 µM): 1.12; relative viability (NCI-H2009; first compound 8 µM): 1.19; relative viability (A-427; first compound 0.08 µM): 1.05; relative viability (A-427; first compound 0.253 µM): 1; relative viability (A-427; first compound 0.8 µM): 1.06; relative viability (A-427; first compound 8 µM): 1.11; relative viability (NCI-H1944; first compound 0.08 µM): 0.832; relative viability (NCI-H1944; first compound 0.253 µM): 0.853; relative viability (NCI-H1944; first compound 0.8 µM): 0.899; relative viability (NCI-H1944; first compound 2.53 µM): 0.825; relative viability (NCI-H1944; first compound 8 µM): 0.951; relative viability (HCC-78; first compound 0.08 µM): 0.515; relative viability (HCC-78; first compound 0.253 µM): 0.561; relative viability (HCC-78; first compound 0.8 µM): 0.519; relative viability (HCC-78; first compound 2.53 µM): 0.514; relative viability (HCC-78; first compound 8 µM): 0.498; relative viability (UMC-11; first compound 0.08 µM): 1.04; relative viability (UMC-11; first compound 0.253 µM): 1.03; relative viability (UMC-11; first compound 0.8 µM): 1.19; relative viability (UMC-11; first compound 2.53 µM): 1.03; relative viability (UMC-11; first compound 8 µM): 1.31; relative viability (LXF-289; first compound 0.08 µM): 0.935; relative viability (LXF-289; first compound 0.253 µM): 1.12; relative viability (LXF-289; first compound 0.8 µM): 0.974; relative viability (LXF-289; first compound 2.53 µM): 1.02; relative viability (LXF-289; first compound 8 µM): 1.1; relative viability (SW 900; first compound 0.08 µM): 0.772; relative viability (SW 900; first compound 0.253 µM): 1.27; relative viability (SW 900; first compound 0.8 µM): 1.05; relative viability (SW 900; first compound 2.53 µM): 0.723; relative viability (SW 900; first compound 8 µM): 0.648; relative viability (NCI-H1915; first compound 0.08 µM): 1.21; relative viability (NCI-H1915; first compound 0.253 µM): 1.2; relative viability (NCI-H1915; first compound 0.8 µM): 1.08; relative viability (NCI-H1915; first compound 2.53 µM): 1.06; relative viability (NCI-H1915; first compound 8 µM): 1.11; relative viability (LC-2-ad; first compound 0.08 µM): 0.888; relative viability (LC-2-ad; first compound 0.253 µM): 0.97; relative viability (LC-2-ad; first compound 0.8 µM): 0.94; relative viability (LC-2-ad; first compound 2.53 µM): 0.875; relative viability (LC-2-ad; first compound 8 µM): 0.873; relative viability (NCI-H460; first compound 0.08 µM): 1.04; relative viability (NCI-H460; first compound 0.253 µM): 1.01; relative viability (NCI-H460; first compound 0.8 µM): 0.963; relative viability (NCI-H460; first compound 2.53 µM): 1.02; relative viability (NCI-H460; first compound 8 µM): 1.13; relative viability (NCI-H1793; first compound 0.08 µM): 0.681; relative viability (NCI-H1793; first compound 0.253 µM): 0.826; relative viability (NCI-H1793; first compound 0.8 µM): 0.562; relative viability (NCI-H1793; first compound 2.53 µM): 0.595; relative viability (NCI-H1793; first compound 8 µM): 0.588; relative viability (EPLC-272H; first compound 0.08 µM): 0.6; relative viability (EPLC-272H; first compound 0.253 µM): 0.624; relative viability (EPLC-272H; first compound 0.8 µM): 0.897; relative viability (EPLC-272H; first compound 2.53 µM): 0.675; relative viability (EPLC-272H; first compound 8 µM): 0.572; relative viability (HOP-62; first compound 0.08 µM): 1.23; relative viability (HOP-62; first compound 0.253 µM): 1.27; relative viability (HOP-62; first compound 0.8 µM): 1.25; relative viability (HOP-62; first compound 2.53 µM): 1.02; relative viability (HOP-62; first compound 8 µM): 1.14; relative viability (NCI-H358; first compound 0.08 µM): 0.622; relative viability (NCI-H358; first compound 0.253 µM): 0.753; relative viability (NCI-H358; first compound 0.8 µM): 0.635; relative viability (NCI-H358; first compound 2.53 µM): 0.825; relative viability (NCI-H358; first compound 8 µM): 0.797; relative viability (COR-L 105; first compound 0.08 µM): 1.31; relative viability (COR-L 105; first compound 0.253 µM): 0.854; relative viability (COR-L 105; first compound 0.8 µM): 0.8; relative viability (COR-L 105; first compound 2.53 µM): 1.08; relative viability (COR-L 105; first compound 8 µM): 1.38; relative viability (HCC-366; first compound 0.08 µM): 0.911; relative viability (HCC-366; first compound 0.253 µM): 0.89; relative viability (HCC-366; first compound 0.8 µM): 0.635; relative viability (HCC-366; first compound 2.53 µM): 0.903; relative viability (HCC-366; first compound 8 µM): 1.03; relative viability (SK-LU-1; first compound 0.08 µM): 0.787; relative viability (SK-LU-1; first compound 0.253 µM): 1.05; relative viability (SK-LU-1; first compound 0.8 µM): 0.906; relative viability (SK-LU-1; first compound 2.53 µM): 0.842; relative viability (SK-LU-1; first compound 8 µM): 0.831; relative viability (NCI-H2170; first compound 0.08 µM): 1.03; relative viability (NCI-H2170; first compound 0.253 µM): 1.05; relative viability (NCI-H2170; first compound 0.8 µM): 1.08; relative viability (NCI-H2170; first compound 2.53 µM): 0.999; relative viability (NCI-H2170; first compound 8 µM): 0.983
